According to patent US20060069132A1, “Azolecarboxamide herbicides” (priority 2004, published 2006):

How the values were obtained:
kochia = experiment: Test C pre-/postemergence herbicide test; assay type: in vivo, Kochia scoparia; conditions: for Plant response rating (0 = no effect, 100 = complete control), Kochia / Plant response rating, Kochia: preemergence
Procedure, shortened: (§1)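 Emerged plants at the 1- to 4-leaf stage (2–18 cm), or freshly planted seeds, received test chemicals in a non-phytotoxic solvent mixture with surfactant. Response was visually scored against controls after 12 to 14 days in the greenhouse, on a 0 (no effect) to 100 (complete control) scale.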

ducksalad = experiment: Test C flooded paddy test; assay type: in vivo, Heteranthera limosa; conditions: for Plant response rating, Ducksalad: 500 g ai/ha, visual rating after 12 to 14 days
lambsquarters = experiment: Test C pre-/postemergence herbicide test; assay type: in vivo, Chenopodium album
Procedure, shortened: as §1

morningglory = experiment: Test C pre-/postemergence herbicide test; assay type: in vivo, Ipomoea coccinea; set-up: key to Plant response rating, Morningglory: 0 = no effect, 100 = complete control; conditions: for Plant response rating (0 = no effect, 100 = complete control), Morningglory / Plant response rating, Morningglory: preemergence
Procedure, shortened: as §1

cocklebur = experiment: Test C pre-/postemergence herbicide test; assay type: in vivo, Xanthium strumarium; conditions: for Plant response rating (0 = no effect, 100 = complete control), Cocklebur / Plant response rating, Cocklebur: preemergence; for Cocklebur plant response rating: Preemergence, scale 0 to 100, 0 no effect, 100 complete control
Procedure, shortened: as §1

common ragweed = experiment: Test C pre-/postemergence herbicide test; assay type: in vivo, Ambrosia elatior; set-up: key to Plant response rating, Ragweed: 0 = no effect, 100 = complete control; conditions: for Plant response rating (0 = no effect, 100 = complete control), Ragweed / Plant response rating, Ragweed: preemergence
Procedure, shortened: as §1

[1] = test system: smallflower umbrella sedge; experiment: Test C flooded paddy test; assay type: in vivo, Cyperus difformis; conditions: for Plant response rating, Sedge, Umbrella: 500 g ai/ha, visual rating after 12 to 14 days
[2] = 125 g ai/ha, scale 0 (no effect) to 100 (complete control), visual, 12 to 14 days
[3] = 250 g ai/ha, scale 0 to 100 (0 no effect, 100 complete control), visual, 12 to 14 days
[4] = Preemergence, 500 g ai/ha, scale 0 to 100, 0 no effect, 100 complete control
[5] = 62 g ai/ha, scale 0 to 100 (0 no effect, 100 complete control)
[6] = 125 g ai/ha, scale of 0 to 100, 0 is no effect, 100 is complete control
[7] = 250 g ai/ha, scale of 0 to 100, 0 is no effect, 100 is complete control
[8] = scale 0 to 100 (0 no effect, 100 complete control)
[9] = 125 g ai/ha, scale 0 (no effect) to 100 (complete control), visual, 12 to 14 days, preemergence
[10] = 500 g ai/ha, scale 0 to 100 (0 no effect, 100 complete control), visual, 12 to 14 days
[11] = 125 g ai/ha, scale 0 to 100 (0 no effect, 100 complete control)
[12] = 62 g ai/ha, preemergence, scale 0 to 100
[13] = 250 g ai/ha, scale 0-100, preemergence
[14] = 500 g ai/ha, scale 0 to 100 (0 no effect, 100 complete control), visual, 12 to 14 days, preemergence

Row | SMILES | Plant response rating, Kochia (kochia; [2]) | Ducksalad plant response rating (ducksalad; [7]) | Plant response rating, Ducksalad (ducksalad; [8]) | Plant response rating, Lambsquarters (lambsquarters; [9]) | Plant response rating, Morningglory (morningglory; [2]) | Plant response rating, Cocklebur (cocklebur; [2]) | Cocklebur plant response rating (cocklebur; 500 g ai/ha) | Sedge, Umbrella plant response rating [1, 7] | Plant response rating, Sedge, Umbrella [1, 8] | Plant response rating, Kochia (kochia; 250 g ai/ha, scale 0-100) | Plant response rating, Kochia (kochia; [10]) | Ducksalad plant response rating (ducksalad; 62 g ai/ha, scale 0 to 100) | Ducksalad plant response rating (ducksalad; [11]) | Plant response rating, Lambsquarters (lambsquarters; [12]) | Plant response rating, Lambsquarters (lambsquarters; [13]) | Plant response rating, Lambsquarters (lambsquarters; [14]) | Plant response rating, Morningglory (morningglory; [10]) | Plant response rating, Cocklebur (cocklebur; 62 g ai/ha, scale 0 to 100) | Plant response rating, Cocklebur (cocklebur; 250 g ai/ha, scale 0-100) | Plant response rating, Ragweed (common ragweed; 62 g ai/ha, scale 0 to 100) | other results
1 | C=CCn1nc(C(C)(C)C)cc1C(=O)Nc1cccc(C(=O)NCC)c1 [Compound 56] | 90 | 70 | 75 | 100 | 0 | 0 | 0 | 90 | 90 | – | – | – | – | – | – | – | – | – | – | – | Plant response rating (0 = no effect, 100 = complete control), Kochia (kochia; 62 g ai/ha): 75; Plant response rating, Kochia (kochia; [3]): 95; Kochia plant response rating (kochia; [4]): 95; Ducksalad plant response rating (ducksalad; [5]): 15; Ducksalad plant response rating (ducksalad; [6]): 55; Plant response rating (0 = no effect, 100 = complete control), Lambsquarters (lambsquarters; 62 g ai/ha, preemergence): 85; Plant response rating, Lambsquarters (lambsquarters; 250 g ai/ha, scale 0 to 100 (0 no effect, 100 complete control), visual, 12 to 14 days, preemergence): 100; Lambsquarters plant response rating (lambsquarters; [4]): 100; Plant response rating (0 = no effect, 100 = complete control), Morningglory (morningglory; 62 g ai/ha): 0; Plant response rating, Morningglory (morningglory; [3]): 55; Morningglory plant response rating (morningglory; [4]): 55; Plant response rating (0 = no effect, 100 = complete control), Cocklebur (cocklebur; 62 g ai/ha): 0; Plant response rating (0 = no effect, 100 = complete control), Ragweed (common ragweed; 62 g ai/ha): 60; Plant response rating, Ragweed (common ragweed; [2]): 95; Plant response rating, Ragweed (common ragweed; [3]): 95; Ragweed plant response rating (common ragweed; [4]): 95; Sedge, Umbrella plant response rating [1, 5]: 45; Sedge, Umbrella plant response rating [1, 6]: 85
2 | CCc1nn(C(C)C)nc1C(=O)Nc1cccc(C(=S)N(C)C)c1 [Compound 409] | – | 80 | 85 | – | – | – | – | 85 | 90 | 85 | 95 | 30 | 30 | 100 | 100 | 100 | 100 | 0 | 70 | 45 | Plant response rating (0 = no effect, 100 = complete control), Kochia (kochia; 125 g ai/ha): 70; Plant response rating, Morningglory (morningglory; 62 g ai/ha, scale 0 to 100): 10; Plant response rating (0 = no effect, 100 = complete control), Morningglory (morningglory; 125 g ai/ha): 40; Plant response rating (0 = no effect, 100 = complete control), Cocklebur (cocklebur; 125 g ai/ha): 30; Plant response rating, Cocklebur (cocklebur; [10]): 80; Plant response rating (0 = no effect, 100 = complete control), Ragweed (common ragweed; 125 g ai/ha): 85; Plant response rating, Ragweed (common ragweed; [10]): 95; Sedge, Umbrella plant response rating ([1]; 62 g ai/ha, scale 0 to 100): 70; Sedge, Umbrella plant response rating [1, 11]: 75
3 | CCn1nc(C(C)(C)C)cc1C(=O)Nc1ccc(OC)c(OC)c1 [Compound 298] | 95 | 80 | 90 | 100 | 5 | 0 | 0 | 70 | 80 | 100 | 100 | 35 | 40 | 100 | 100 | 100 | 45 | 0 | 0 | 0 | Plant response rating, Kochia (kochia; 62 g ai/ha, scale 0 to 100): 80; Plant response rating, Morningglory (morningglory; 250 g ai/ha, scale 0-100): 20; Plant response rating, Ragweed (common ragweed; 250 g ai/ha, scale 0-100): 0; Plant response rating, Ragweed (common ragweed; [10]): 0; Sedge, Umbrella plant response rating ([1]; 62 g ai/ha, scale 0 to 100): 0; Sedge, Umbrella plant response rating [1, 11]: 0
